Laboratory results from ChEMBL document CHEMBL1201862, “PubChem BioAssay data set” (2004).
Active and inactive are the calls of the source.

Experiments:
[1] = HEK-293T cell viability reduction – luminescence, B-cell screen hits, cytotoxicity control for BCR NF-kB inhibitor project, dose response (AID 489021); assay type: functional, cell-based;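 also: HEK-293T cells carrying an NF-kB luciferase reporter; cells exposed to compound for about 14 hours before viability readout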
[2] = DRD fibroblast viability loss – cell-based, non-viral oncogenic, luminescence, dose response (AID 1934); assay type: functional; conditions: Homo sapiens
BJ [3] = assay: BJ-TERT fibroblast viability loss – cell-based, RAS-independent, luminescence, dose response (AID 1933); assay type: functional; conditions: Homo sapiens
BJ [4] = assay: BJ-TERT-LT-ST fibroblast viability loss – cell-based, RAS-independent, luminescence, dose response (AID 1935); assay type: functional; conditions: Homo sapiens;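 also: BJ fibroblasts immortalized with TERT plus LT and ST oncogenes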
BJ [5] = assay: cells; assay type: functional, cell-based; conditions: Homo sapiens
[6] = molecular target: T1, DNA repair and recombination protein RAD54-like (Homo sapiens, UniProt Q92698); assay: RAD54 Holliday junction migration blockers – biochemical, fluorescence, cherry-picked samples, dose series, confirmation (AID 651657); assay type: functional
T1 sequence (Q92698 whole entry): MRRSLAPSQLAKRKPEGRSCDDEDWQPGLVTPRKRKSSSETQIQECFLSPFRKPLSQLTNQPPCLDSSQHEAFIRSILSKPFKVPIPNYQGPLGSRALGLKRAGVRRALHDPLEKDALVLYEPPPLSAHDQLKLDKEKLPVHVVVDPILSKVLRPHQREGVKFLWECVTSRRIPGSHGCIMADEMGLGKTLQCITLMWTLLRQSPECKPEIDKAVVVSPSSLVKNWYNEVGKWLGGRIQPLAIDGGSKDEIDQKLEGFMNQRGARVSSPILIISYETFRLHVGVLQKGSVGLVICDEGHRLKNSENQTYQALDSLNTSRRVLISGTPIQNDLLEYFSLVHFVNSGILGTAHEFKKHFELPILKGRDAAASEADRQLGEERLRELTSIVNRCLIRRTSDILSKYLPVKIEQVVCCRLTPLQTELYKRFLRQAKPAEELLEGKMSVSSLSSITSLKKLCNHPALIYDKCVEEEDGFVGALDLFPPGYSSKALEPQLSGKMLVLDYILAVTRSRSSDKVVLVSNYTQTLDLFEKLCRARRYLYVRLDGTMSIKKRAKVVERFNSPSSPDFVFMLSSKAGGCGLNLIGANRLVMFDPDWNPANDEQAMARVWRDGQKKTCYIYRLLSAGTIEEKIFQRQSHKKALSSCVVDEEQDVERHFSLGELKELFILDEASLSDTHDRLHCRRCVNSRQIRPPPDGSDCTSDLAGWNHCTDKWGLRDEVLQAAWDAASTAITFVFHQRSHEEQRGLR

[7] = off-target signal loss in HeLa-CEM21 co-culture – HeLa F-luc CTL cells, cherry-picked, counter-screen for HIV-1 Env fusion inhibitor project, dose response (AID 652040); assay type: functional, cell-based;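 also: potency for signal decrease marking cytotoxic or nonspecific inhibition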
[8] = blockers of HIV-1 envelope-mediated cell-cell fusion – cherry-pick, dose response (AID 652057); assay type: functional, cell-based
[9] = HIV-1 AD8 envelope cell-cell fusion blockers – cherry-pick, dose response (AID 652062); assay type: functional, cell-based;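 also: luciferase signal from cell-cell fusion driven by HIV-1 clade B AD8 Env; potency is for inhibitors of fusion seen as a drop in luminescence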
[10] = blockers of HIV-1 ZM109 envelope-driven cell-cell fusion – HeLa effector, CEM target cells, luciferase, cherry-pick, dose response (AID 652058); assay type: functional, cell-based;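 also: luciferase signal from HIV-1 Env mediated cell-cell fusion of effector and target cells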
cells [11] = assay type: functional, cell-based
[12] = molecular target: T2, Trace amine-associated receptor 1 (Homo sapiens, UniProt Q96RJ0); assay: Counterscreen for agonists of the human trace amine associated receptor 1 (hTAAR1): Fluorescence-based cell-based high throughput dose response assay to identify hTAAR1 agonist that also desensitize TAAR1 receptor response.; assay type: functional
T2 sequence (Q96RJ0 whole entry): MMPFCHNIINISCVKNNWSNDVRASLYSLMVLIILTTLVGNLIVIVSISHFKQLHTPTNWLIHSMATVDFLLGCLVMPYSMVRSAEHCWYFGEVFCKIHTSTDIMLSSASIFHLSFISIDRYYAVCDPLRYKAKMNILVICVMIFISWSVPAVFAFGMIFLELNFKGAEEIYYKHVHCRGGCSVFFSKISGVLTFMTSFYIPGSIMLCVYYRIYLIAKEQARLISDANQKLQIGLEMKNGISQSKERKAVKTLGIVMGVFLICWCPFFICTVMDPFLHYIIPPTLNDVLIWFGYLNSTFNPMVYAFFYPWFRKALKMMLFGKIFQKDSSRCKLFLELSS

[13] = molecular target: T2, Trace amine-associated receptor 1; assay: Fluorescence-based cell-based high throughput dose response assay to identify agonists of the human trace amine associated receptor 1 (TAAR1).; assay type: functional
cells [14] = assay type: functional, cell-based; remark: listed apart in the source
[15] = OVCAR8 cell viability loss – plate reader, dry powder samples, PAX8 project, dose response (AID 743197); assay type: functional, cell-based; conditions: OVCAR-8
Paired box protein Pax-8 = Paired box protein Pax-8 (Homo sapiens, UniProt Q06710); assay: PAX8 transcriptional activity inhibition in RMG-I – RMG-I cells, luciferase, cherry-pick, dose response (AID 687027); assay type: functional, cell-based;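 also: luciferase reporter driven by Pax8 target thyroperoxidase promoter measured by SteadyGlo luminescence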
[16] = OVCAR-3 cell viability loss – plate reader, dry powder samples, PAX8 inhibitor project, dose response (AID 743044); assay type: functional, cell-based
[17] = IGROV1 cell killing – plate reader, dry powder samples, PAX8 inhibitor project, dose response (AID 743043); assay type: functional, cell-based; conditions: IGROV-1
[18] = P. falciparum Dd2 growth inhibitors, dose response, SYBR Green, cherry-picked samples (AID 1159567); assay type: functional, cell-based
Cytochrome P450 3A4 = Cytochrome P450 3A4 (Homo sapiens, UniProt P08684); conditions: Potency;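 also: confirmatory qHTS run detecting inhibitors and substrates of CYP3A4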
Chain of Cytochrome P450 3A4 (P08684 whole entry): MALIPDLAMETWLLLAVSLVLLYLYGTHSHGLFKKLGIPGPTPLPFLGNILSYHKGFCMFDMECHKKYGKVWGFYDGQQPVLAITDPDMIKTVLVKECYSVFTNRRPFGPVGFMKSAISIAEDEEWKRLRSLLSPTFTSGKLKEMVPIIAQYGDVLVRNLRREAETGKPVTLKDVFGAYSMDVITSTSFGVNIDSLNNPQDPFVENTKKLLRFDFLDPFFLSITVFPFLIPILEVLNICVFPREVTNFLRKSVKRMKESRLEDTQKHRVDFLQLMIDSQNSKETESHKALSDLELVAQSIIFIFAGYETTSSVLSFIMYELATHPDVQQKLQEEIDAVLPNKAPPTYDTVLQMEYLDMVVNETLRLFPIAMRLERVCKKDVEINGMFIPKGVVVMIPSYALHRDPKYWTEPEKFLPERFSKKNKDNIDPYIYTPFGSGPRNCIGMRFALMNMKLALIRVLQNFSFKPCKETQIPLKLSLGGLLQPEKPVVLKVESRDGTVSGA

Chain of Paired box protein Pax-8 (Q06710 whole entry): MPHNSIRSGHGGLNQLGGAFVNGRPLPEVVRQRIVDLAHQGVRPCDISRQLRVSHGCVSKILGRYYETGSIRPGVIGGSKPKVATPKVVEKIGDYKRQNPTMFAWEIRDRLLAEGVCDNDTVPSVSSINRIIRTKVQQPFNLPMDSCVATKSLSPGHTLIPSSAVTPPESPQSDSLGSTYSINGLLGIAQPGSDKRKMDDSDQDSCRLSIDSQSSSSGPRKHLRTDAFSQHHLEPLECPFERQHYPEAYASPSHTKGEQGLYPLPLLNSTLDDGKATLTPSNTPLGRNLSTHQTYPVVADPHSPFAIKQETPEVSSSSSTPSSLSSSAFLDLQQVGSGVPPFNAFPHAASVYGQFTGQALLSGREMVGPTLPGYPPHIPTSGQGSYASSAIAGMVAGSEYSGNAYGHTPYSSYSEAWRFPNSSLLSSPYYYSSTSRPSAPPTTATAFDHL

## CCn1c(=O)cc(OCC(=O)Nc2ccc(OC)c(OC)c2)c2ccccc21
[1]
  IC50: > 80 µM (inactive)

## CCc1ccc(CN(C(=O)COc2c(C)cccc2C)C2CCS(=O)(=O)C2)cc1 (configuration not stated)
[2]
  EC50: > 150 µM (not active)
BJ [3]
  EC50: > 150 µM (not active)
BJ [4]
  EC50: > 150 µM (inconclusive)
BJ [5]
  EC50: > 150 µM (not active)

## c1ccc(-c2nc(NCCCn3ccnc3)c3oc4ccccc4c3n2)cc1
[6]
  AC50: 100 µM (inactive)

## CCN1C(=O)[C@H]2[C@@H](c3ccc(C)cc3)N3C(=O)N(c4cccc(Br)c4)C(=O)[C@@]3(CC)[C@H]2C1=O
[7]
  AC50: 6.04 µM (active)
[8]
  AC50: 4.44 µM (active)
[9]
  AC50: 1.18 µM (active)
[10]
  AC50: 3.01 µM (active)

## Cc1ccc(S(=O)(=O)N2CCCCC2CCNC(=O)C(=O)NCc2ccncc2)cc1 (configuration not stated)
[1]
  IC50: > 80 µM (inactive)

## COc1cccc(OC)c1C(=O)NCCc1ccccc1
Cells [11]
  EC50: > 29.9 µM (inactive)
[12]
  IC50: 9.6 µM (active)
[13]
  EC50: 2.64 µM (active)
Cells [14]
  IC50: > 29.9 µM (inactive)

## C[C@@H]1CN([C@H](C)CO)C(=O)c2cc(NC(=O)Nc3ccc(C(F)(F)F)cc3)ccc2O[C@@H](C)CCCCO[C@@H]1CN(C)Cc1ccc2c(c1)OCO2
[15]
  AC50: 26.4 µM (active)
Paired box protein Pax-8
  AC50: 5.56 µM (active)
[16]
  AC50: 25.1 µM (active)
[17]
  AC50: 28.4 µM (active)

## O=C(CCn1c(=S)[nH]c2cc3c(cc2c1=O)OCO3)NCCc1ccccc1Cl
Cells [11]
  EC50: > 29.9 µM (inactive)
[12]
  IC50: 9.24 µM (active)
[13]
  EC50: 7.04 µM (active)
Cells [14]
  IC50: > 29.9 µM (inactive)

## C[C@H](CO)N1C[C@H](C)[C@@H](CN(C)S(=O)(=O)c2cccc(F)c2)OCc2ccccc2-c2c(n(C)c3ccccc23)C1=O
[15]
  AC50: > 70 µM (inactive)
[18]
  AC50: 4.19 µM (active)
Paired box protein Pax-8
  AC50: 11.1 µM (active)
[16]
  AC50: 43.2 µM (active)

## C[C@@H]1CN([C@@H](C)CO)C(=O)Cc2cc(N(C)C)ccc2O[C@H]1CN(C)Cc1ccc(C(=O)Nc2ccccc2N)cc1
[15]
  AC50: > 70 µM (inactive)
Paired box protein Pax-8
  AC50: 16.6 µM (active)
[16]
  AC50: < 0.26 µM (active)
[17]
  AC50: 45.1 µM (active)

## CC1=C(C(=O)OCc2ccccc2)C(c2ccc(C(F)(F)F)cc2)NC(=O)N1CCCCCC(=O)O (configuration not stated)
Cytochrome P450 3A4
  AC50: 15.8 µM (inconclusive)

## Cc1ccsc1/C=N/NC(=O)Cn1nc(C)c([N+](=O)[O-])c1C
Cells [11]
  EC50: > 29.9 µM (inactive)
[12]
  IC50: 5.81 µM (active)
[13]
  EC50: 3.79 µM (active)
Cells [14]
  IC50: > 29.9 µM (inactive)

## COc1ccc(-c2cc(=O)c3c(O)c(OC)c(OC)c(OC)c3o2)cc1OC [5-DEMETHYLNOBILETIN]
Cytochrome P450 3A4
  AC50: 10 µM (inconclusive)
